The results in this text go back to patent US20100152114A1, “Antioxidant activity of GH-RH Antagonists” (priority 2008, published 2010).

Ends that are not written are not given here.

Holding throughout (type): cell-based
For assay [1], the system named is LNCaP prostate cancer cell line. Briefly: Cell proliferation rate assay in LNCaP cells. The conditions noted are these: vs LNCaP cells cultured without peptide, 72 hours incubation (FIG. 1). The source says: (A) is a graphic presentation of the changes in the proliferation rate of the LNCaP prostate cancer cell line after exposure to GHRH antagonist JMR-132 and GHRH (1-29)NH2. Percentage increase or decrease are expressed vs LNCaP cells cultured in the absence of JMR-132 or GHRH (1-29)NH2*(P<0.05), **(P<0.005).
The rate of the cell proliferation […] microscope using the trypan blue assay or a Z series Coulter Counter (Beckman Coulter, Fullerton, Calif., USA). The data are expressed as the mean±SEM. Statistical evaluation of the results was performed by the Student's t test (two-tailed). P values shown are against the control group.
(§1) LNCaP prostate cancer cells were exposed to two concentrations of GHRH(1-29)NH2 and JMR-132. […] However, GHRH (1-29)NH2 at 0.1 μM concentration stimulated the proliferation rate of LNCaP cells by 13%. GHRH antagonist JMR-132 at the doses of 0.1 μM and 1 μM decreased the proliferation of LNCaP prostate cancer cell line by 32% and 37% respectively. In addition, the expression levels of the PCNA (M.W: 36 KDa) were evaluated by Western Blot. The PCNA protein expression was increased in the cells exposed to 0.1 μM and 1 μM of GHRH (1-29)NH2 (R.I: 0.77 and 0.925 respectively) and decreased in the cells that incubated with 0.1 μM of GHRH antagonist JMR-132. (R.I: 0.495) as compared to control (R.I: 0.656).

The subject of assay [2] is Proliferating Cell Nuclear Antigen (PCNA). Put plainly: Western Blot of PCNA expression in LNCaP cells. The conditions noted are these: control R.I: 0.656. On the procedure:
(B) is a Western Blot analysis of expression of the Proliferating Cell Nuclear Antigen (PCNA) in LNCaP prostate cancer cell line after exposure to GHRH antagonist JMR-132, and GHRH(1-29)NH2 n=2.
(§2) Prostate cancer cells LNCaP and breast cancer cells MCF-7 were obtained from American Type Culture Collection (Manassas, Va.) and were cultured as described previously. The antibodies that detect P53, PCNA, GPX1, SOD1, NQ01, Thioredoxin 1, COX2 and COX IV were purchased from Cell Signalling (Danvers, Mass.). The antibodies that detect β actin, NFκB50, pNFκB50, caspase 3 and its cleaved form were purchased from Santa Cruz Biotechnology (Santa Cruz, Calif.). The antibodies against GHRH-R (batch number: SV95) and SV1 (batch number: JH 2317/5) were raised in our laboratory. The signals for the immunoreactive proteins were visualized in a Chemi Doc XRS system (Biorad, Hercules, Calif.). The western Blot assay as well the quantification analysis of the blots was performed as described previously.
as §1
Background: Immunoblotting shows a protein as a band on a membrane.

Another assay concerns cleaved caspase 3. Briefly: Western Blot of cleaved caspase 3 in LNCaP cells. The conditions noted are these: 1 μM, 72 hours, control R.I: 0.320. The protocol:
(A): is a Western Blot analysis of expression of the phosphorylated NFκB p50, caspase 3 protein and its cleaved form in LNCaP prostate cancer cell line after exposure to GHRH antagonist JMR-132 and GHRH (1-29)NH2. n=2
as §2
LNCaP cells cultured in vitro were exposed to 1 μM GHRH antagonist JMR-132 and 1 μM GHRH(1-29)NH2. The expression levels of NFκB p50, the phosphorylated NFκB p50, caspase 3 (M.W: 35 KDa) and the cleaved caspase 3 were detected by Western Blot. […]

A further assay relates to malondialdehyde (MDA). Briefly: Lipid peroxidation: malondialdehyde immunoblot in LNCaP cells. The conditions noted are these: 1 μM, 72 hour, control R.I: 4.433. On the procedure: The detection of the carbonyl groups, the nitrotyrosine and the lipid peroxidation was performed with the Oxiselect Protein carbonyl Immunoblot, the Oxiselect Nitrotyrosine Immunoblot Kit and the Oxiselect Malondialdehyde Immunoblot Kit respectively (Cell Biolabs, San Diego, Calif.) according the manufacturer s instructions. The detection of the lipid peroxidation using a primary rabbit anti-MDA antibody (Cell Biolabs, San Diego, Calif.) according the manufacturer' instructions. The β-actin signal was used as control.
LNCaP prostate cancer cell line cultured in vitro were exposed to 1 μM JMR-132 or 1 μM GHRH(1-29)NH2. The levels of the oxidation of the proteins were determined by the detection of the N-nitrotyrosine and the protein carbonyl groups. Both were elevated in the cells exposed to GHRH (1-29)NH2 (R.I: 3.282, 7.415) and decreased in the cells incubated with GHRH antagonist JMR-132 (R.I: 1.251, 4.275), as compared to control (R.I: 2.903, 5.846). The levels of the lipid peroxidation, determined by the detection of the malondialdehyde (MDA), were increased in cells exposed to GHRH (1-29)NH2 (R.I:4.89) and decreased in cells incubated with GHRH antagonist JMR-132 (R.I: 2.973) as compared to control (R.I: 4.433). […]

Take “GHRH(1-29)NH2 (YADAIFTNSYRKVLGQLSARKLLQDIMSR-NH2; UniProt P01286 32-60, looked up, fragment) [Growth Hormone-Releasing Hormone (1-29) amide, agonist peptide used for comparison with the antagonist]”: in assay [1] (0.1 μM), the “increase (stimulation) of the proliferation rate of LNCaP cells” value is recorded as 13%. Further, the “increase of the proliferation rate of LNCaP cells” value in assay [1] (1 μM) is listed as 7%. Further, the “PCNA protein expression (R.I)” value in assay [2] (0.1 μM) is given as 0.77; in assay [2] (1 μM), 0.925. The “expression of cleaved caspase 3 (R.I)” value in the assay on cleaved caspase 3 was found to be 0.182. In addition, the “lipid peroxidation, malondialdehyde (MDA) (R.I)” value in the assay with malondialdehyde (MDA) was 4.89.

As to “[PhAc^0-Tyr^1, D-Arg^2, Cpa^6, Ala^8, Har^9, Tyr(Me)^10, His^11, Abu^15, His^20, Nle^27, D-Arg^28, Har^29]hGH-RH(1-29)NH2 [JMR-132]”, the “decrease of the proliferation of LNCaP prostate cancer cell line” value in assay [1] (0.1 μM) came out at 32%; in assay [1] (1 μM), 37%. For the same substance, the “PCNA protein expression (R.I)” value in assay [2] (0.1 μM) was 0.495. In addition, in the assay with cleaved caspase 3, the “expression of cleaved caspase 3 (R.I)” value is given as 0.391. The “lipid peroxidation, malondialdehyde (MDA) (R.I)” value in the assay on malondialdehyde (MDA) came to 2.973.
